In paper PMC8371461 (Frontiers in Pharmacology, 2021):

Assays:
[1] = target: T1, ABL1(T315I)-phosphorylated (Homo sapiens, UniProt P00519, T315I); experiment: kinome scan; format: binding; settings: 10 µM
T1 construct: purchased DiscoverX (KINOMEscan)

AKT3 = target: T2, AKT3 (Homo sapiens, UniProt Q9Y243); experiment: kinome scan; format: binding; settings: 10 µM
T2 construct: purchased DiscoverX (KINOMEscan)

CAMK1D = target: T3, CAMK1D (Homo sapiens, UniProt Q8IU85); experiment: kinome scan; format: binding; settings: 10 µM
T3 construct: purchased DiscoverX (KINOMEscan)

CAMK2A = target: T4, CAMK2A (Homo sapiens, UniProt Q9UQM7); experiment: kinome scan; format: binding; settings: 10 µM
T4 construct: purchased DiscoverX (KINOMEscan)

CAMK2G = target: T5, CAMK2G (Homo sapiens, UniProt Q13555); experiment: kinome scan; format: binding; settings: 10 µM
T5 construct: purchased DiscoverX (KINOMEscan)
T5 sequence (Q13555 whole entry): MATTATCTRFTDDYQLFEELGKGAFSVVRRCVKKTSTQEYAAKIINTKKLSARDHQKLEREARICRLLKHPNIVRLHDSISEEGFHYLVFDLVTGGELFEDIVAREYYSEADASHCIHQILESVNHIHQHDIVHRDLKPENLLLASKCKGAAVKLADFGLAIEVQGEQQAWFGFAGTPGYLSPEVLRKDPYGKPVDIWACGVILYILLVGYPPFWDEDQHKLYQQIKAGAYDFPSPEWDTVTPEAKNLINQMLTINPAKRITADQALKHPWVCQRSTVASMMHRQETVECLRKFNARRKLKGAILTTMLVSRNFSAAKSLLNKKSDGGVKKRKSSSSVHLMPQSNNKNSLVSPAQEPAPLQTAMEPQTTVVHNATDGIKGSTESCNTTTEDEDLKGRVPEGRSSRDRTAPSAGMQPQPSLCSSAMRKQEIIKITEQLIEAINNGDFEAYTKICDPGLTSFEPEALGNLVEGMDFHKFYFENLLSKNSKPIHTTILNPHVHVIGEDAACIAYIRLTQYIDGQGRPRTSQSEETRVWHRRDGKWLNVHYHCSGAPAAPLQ

CDK7 = target: T6, CDK7 (Homo sapiens, UniProt P50613); experiment: kinome scan; format: binding; settings: 10 µM
T6 construct: purchased DiscoverX (KINOMEscan)

DAPK3 = target: T7, DAPK3 (Homo sapiens, UniProt O43293); experiment: kinome scan; format: binding; settings: 10 µM
T7 construct: purchased DiscoverX (KINOMEscan)

EGFR(G719C) = target: T8, EGFR(G719C) (Homo sapiens, UniProt P00533, G719C); experiment: kinome scan; format: binding; settings: 10 µM
T8 construct: purchased DiscoverX (KINOMEscan)

EGFR(L861Q) = target: T9, EGFR(L861Q) (Homo sapiens, UniProt P00533, L861Q); experiment: kinome scan; format: binding; settings: 10 µM
T9 construct: purchased DiscoverX (KINOMEscan)

ERK1 = target: T10, ERK1 (Homo sapiens, UniProt P27361); experiment: kinome scan; format: binding; settings: 10 µM
T10 construct: purchased DiscoverX (KINOMEscan)

ERK3 = target: T11, ERK3 (Homo sapiens, UniProt Q16659); experiment: kinome scan; format: binding; settings: 10 µM
T11 construct: purchased DiscoverX (KINOMEscan)

FLT3(ITD) = experiment: kinome scan; format: binding, human; settings: 10 µM
IKK-epsilon = target: T12, IKK-epsilon (Homo sapiens, UniProt Q14164); experiment: kinome scan; format: binding; settings: 10 µM
T12 construct: purchased DiscoverX (KINOMEscan)

KIT = target: T13, KIT (Homo sapiens, UniProt P10721); experiment: kinome scan; format: binding
T13 construct: purchased DiscoverX (KINOMEscan)
T13 sequence (P10721 26-976): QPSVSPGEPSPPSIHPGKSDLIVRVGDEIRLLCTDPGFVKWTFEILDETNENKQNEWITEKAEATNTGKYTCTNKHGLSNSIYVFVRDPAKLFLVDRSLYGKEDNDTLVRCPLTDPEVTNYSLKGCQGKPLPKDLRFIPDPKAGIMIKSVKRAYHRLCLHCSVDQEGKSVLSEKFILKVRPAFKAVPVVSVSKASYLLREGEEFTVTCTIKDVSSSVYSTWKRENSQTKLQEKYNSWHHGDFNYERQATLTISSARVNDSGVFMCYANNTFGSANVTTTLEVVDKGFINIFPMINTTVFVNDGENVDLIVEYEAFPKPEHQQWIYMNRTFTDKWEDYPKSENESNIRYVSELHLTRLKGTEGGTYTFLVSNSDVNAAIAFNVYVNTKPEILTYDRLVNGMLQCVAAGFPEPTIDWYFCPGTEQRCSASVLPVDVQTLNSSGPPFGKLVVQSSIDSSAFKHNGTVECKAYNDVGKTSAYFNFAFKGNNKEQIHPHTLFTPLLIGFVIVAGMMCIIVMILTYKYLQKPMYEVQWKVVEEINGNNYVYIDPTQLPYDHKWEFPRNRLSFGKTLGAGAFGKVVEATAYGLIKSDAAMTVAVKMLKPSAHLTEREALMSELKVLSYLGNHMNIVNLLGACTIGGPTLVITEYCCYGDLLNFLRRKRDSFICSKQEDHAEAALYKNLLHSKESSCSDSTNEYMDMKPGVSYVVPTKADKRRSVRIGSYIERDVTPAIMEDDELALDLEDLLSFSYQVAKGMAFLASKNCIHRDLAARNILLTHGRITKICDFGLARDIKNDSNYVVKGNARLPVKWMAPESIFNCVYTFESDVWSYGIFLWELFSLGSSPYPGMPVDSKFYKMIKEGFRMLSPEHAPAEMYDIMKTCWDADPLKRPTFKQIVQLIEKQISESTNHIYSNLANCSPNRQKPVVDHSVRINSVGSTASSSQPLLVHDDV

LRRK2 = target: T14, LRRK2 (Homo sapiens, UniProt Q5S007); experiment: kinome scan; format: binding; settings: 10 µM
T14 construct: purchased DiscoverX (KINOMEscan)

MAK = target: T15, MAK (Homo sapiens, UniProt P20794); experiment: kinome scan; format: binding; settings: 10 µM
T15 construct: purchased DiscoverX (KINOMEscan)
T15 sequence (P20794 whole entry): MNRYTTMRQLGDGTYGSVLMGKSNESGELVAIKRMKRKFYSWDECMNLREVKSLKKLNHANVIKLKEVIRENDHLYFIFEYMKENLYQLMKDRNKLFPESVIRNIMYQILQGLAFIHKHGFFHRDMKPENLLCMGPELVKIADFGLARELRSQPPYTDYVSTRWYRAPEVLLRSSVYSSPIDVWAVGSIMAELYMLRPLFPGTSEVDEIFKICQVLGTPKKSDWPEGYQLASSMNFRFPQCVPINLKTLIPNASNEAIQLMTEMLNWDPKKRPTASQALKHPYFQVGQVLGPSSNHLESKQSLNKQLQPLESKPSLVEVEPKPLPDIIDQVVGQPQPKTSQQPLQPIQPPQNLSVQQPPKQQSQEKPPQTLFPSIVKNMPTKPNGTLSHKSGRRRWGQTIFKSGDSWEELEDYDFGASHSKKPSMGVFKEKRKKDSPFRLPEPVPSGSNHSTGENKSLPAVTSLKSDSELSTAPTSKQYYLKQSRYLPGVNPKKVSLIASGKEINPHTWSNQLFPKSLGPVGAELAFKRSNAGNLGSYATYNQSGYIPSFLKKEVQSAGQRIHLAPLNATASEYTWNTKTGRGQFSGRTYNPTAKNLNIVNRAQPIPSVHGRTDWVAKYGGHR

MAP4K2 = target: T16, MAP4K2 (Homo sapiens, UniProt Q12851); experiment: kinome scan; format: binding; settings: 10 µM
T16 construct: purchased DiscoverX (KINOMEscan)
T16 sequence (Q12851 whole entry): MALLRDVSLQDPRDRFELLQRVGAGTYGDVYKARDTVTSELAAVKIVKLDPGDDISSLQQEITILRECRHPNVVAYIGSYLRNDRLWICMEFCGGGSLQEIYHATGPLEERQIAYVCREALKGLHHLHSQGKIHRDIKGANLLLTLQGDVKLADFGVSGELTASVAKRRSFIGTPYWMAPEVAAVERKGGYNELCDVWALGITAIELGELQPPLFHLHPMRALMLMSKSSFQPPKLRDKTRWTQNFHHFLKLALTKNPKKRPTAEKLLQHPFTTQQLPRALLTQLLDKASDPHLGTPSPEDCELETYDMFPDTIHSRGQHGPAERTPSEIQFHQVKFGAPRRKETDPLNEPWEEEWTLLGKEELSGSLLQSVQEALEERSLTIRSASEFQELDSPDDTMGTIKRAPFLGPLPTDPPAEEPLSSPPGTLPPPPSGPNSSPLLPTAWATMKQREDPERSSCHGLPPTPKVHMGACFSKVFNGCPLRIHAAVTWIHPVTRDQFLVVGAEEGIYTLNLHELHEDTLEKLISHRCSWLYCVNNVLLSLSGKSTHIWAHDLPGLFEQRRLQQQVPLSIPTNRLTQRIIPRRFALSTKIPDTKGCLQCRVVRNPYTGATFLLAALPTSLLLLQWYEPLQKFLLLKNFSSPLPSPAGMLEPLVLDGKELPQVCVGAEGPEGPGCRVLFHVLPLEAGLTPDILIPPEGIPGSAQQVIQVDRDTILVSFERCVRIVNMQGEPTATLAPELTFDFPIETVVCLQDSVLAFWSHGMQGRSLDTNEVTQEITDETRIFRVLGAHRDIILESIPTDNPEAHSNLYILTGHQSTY

MYLK = target: T17, MYLK (Homo sapiens, UniProt Q15746); experiment: kinome scan; format: binding; settings: 10 µM
T17 construct: purchased DiscoverX (KINOMEscan)

NEK3 = target: T18, NEK3 (Homo sapiens, UniProt P51956); experiment: kinome scan; format: binding; settings: 10 µM
T18 construct: purchased DiscoverX (KINOMEscan)

NEK4 = target: T19, NEK4 (Homo sapiens, UniProt P51957); experiment: kinome scan; format: binding; settings: 10 µM
T19 construct: purchased DiscoverX (KINOMEscan)
T19 sequence (P51957 whole entry): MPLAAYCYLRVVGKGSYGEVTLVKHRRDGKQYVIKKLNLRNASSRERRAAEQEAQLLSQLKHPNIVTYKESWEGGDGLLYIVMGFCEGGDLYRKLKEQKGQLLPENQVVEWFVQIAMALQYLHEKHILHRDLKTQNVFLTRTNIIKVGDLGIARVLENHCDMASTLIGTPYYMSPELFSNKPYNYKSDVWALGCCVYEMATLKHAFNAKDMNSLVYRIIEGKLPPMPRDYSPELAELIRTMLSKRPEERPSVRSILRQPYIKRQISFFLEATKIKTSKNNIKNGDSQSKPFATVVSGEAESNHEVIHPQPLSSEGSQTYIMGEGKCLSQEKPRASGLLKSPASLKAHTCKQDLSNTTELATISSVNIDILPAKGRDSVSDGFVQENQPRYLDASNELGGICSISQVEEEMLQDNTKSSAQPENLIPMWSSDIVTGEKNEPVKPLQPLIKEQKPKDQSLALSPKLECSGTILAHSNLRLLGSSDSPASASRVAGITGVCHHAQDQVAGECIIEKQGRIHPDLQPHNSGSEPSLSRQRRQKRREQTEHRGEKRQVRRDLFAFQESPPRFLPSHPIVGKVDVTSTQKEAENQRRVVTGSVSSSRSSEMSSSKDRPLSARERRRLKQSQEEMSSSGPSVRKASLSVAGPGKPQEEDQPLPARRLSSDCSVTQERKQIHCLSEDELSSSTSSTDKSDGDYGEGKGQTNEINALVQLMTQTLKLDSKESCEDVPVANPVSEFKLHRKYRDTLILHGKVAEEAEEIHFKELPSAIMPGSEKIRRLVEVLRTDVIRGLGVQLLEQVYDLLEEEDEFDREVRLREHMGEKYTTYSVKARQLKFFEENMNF

PAK7 = target: T20, PAK7 (Homo sapiens, UniProt Q9P286); experiment: kinome scan; format: binding; settings: 10 µM
T20 construct: purchased DiscoverX (KINOMEscan)

PKN1 = target: T21, PKN1 (Homo sapiens, UniProt Q16512); experiment: kinome scan; format: binding; settings: 10 µM
T21 construct: purchased DiscoverX (KINOMEscan)

PRKD3 = target: T22, PRKD3 (Homo sapiens, UniProt O94806); experiment: kinome scan; format: binding; settings: 10 µM
T22 construct: purchased DiscoverX (KINOMEscan)
T22 sequence (O94806 whole entry): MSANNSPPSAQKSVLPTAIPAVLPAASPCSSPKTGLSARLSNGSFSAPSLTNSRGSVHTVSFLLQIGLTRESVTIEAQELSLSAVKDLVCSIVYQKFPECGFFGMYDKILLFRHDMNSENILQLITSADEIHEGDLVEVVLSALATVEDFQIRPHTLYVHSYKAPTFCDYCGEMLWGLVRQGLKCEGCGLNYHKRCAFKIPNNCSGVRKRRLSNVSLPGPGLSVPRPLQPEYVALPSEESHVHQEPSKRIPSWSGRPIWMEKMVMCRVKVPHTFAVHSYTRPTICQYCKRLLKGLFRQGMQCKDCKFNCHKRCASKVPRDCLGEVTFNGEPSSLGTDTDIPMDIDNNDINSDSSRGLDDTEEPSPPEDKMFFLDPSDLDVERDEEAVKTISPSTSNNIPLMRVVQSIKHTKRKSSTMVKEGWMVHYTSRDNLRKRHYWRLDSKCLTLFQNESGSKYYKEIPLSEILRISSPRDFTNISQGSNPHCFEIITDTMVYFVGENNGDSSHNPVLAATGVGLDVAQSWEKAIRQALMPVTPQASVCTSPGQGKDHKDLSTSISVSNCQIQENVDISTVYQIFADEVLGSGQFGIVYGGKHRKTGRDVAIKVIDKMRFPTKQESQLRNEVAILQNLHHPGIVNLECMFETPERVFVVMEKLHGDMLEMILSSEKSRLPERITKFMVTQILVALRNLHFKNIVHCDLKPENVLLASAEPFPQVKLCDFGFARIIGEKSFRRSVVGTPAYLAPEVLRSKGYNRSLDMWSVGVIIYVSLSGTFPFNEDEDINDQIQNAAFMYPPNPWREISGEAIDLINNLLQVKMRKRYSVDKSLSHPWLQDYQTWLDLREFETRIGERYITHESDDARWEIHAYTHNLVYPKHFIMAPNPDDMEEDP

QSK = target: T23, QSK (Homo sapiens, UniProt Q9Y2K2); experiment: kinome scan; format: binding; settings: 10 µM
T23 construct: purchased DiscoverX (KINOMEscan)

RET(V804L) = target: T24, RET(V804L) (Homo sapiens, UniProt P07949, V804L); experiment: kinome scan; format: binding; settings: 10 µM
T24 construct: purchased DiscoverX (KINOMEscan)

[2] = target: T25, RSK1(Kin.Dom.1-N-terminal) (Homo sapiens, UniProt Q15418); experiment: kinome scan; format: binding; settings: 10 µM
T25 construct: RSK1(Kin.Dom.1-N-terminal); purchased DiscoverX (KINOMEscan)

[3] = target: T26, RSK1(Kin.Dom.2-C-terminal) (Homo sapiens, UniProt Q15418); experiment: kinome scan; format: binding; settings: 10 µM
T26 construct: RSK1(Kin.Dom.2-C-terminal); purchased DiscoverX (KINOMEscan)
T26 sequence (Q15418 418-675 limits assumed): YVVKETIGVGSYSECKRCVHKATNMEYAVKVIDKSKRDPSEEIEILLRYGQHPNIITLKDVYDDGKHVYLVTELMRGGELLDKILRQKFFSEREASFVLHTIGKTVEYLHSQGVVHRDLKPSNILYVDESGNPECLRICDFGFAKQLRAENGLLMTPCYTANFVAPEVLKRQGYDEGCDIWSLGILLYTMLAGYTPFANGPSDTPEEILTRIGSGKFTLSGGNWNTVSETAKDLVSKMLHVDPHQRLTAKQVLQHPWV

TGFBR2 = target: T27, TGFBR2 (Homo sapiens, UniProt P37173); experiment: kinome scan; format: binding; settings: 10 µM
T27 construct: purchased DiscoverX (KINOMEscan)

TNNI3K = target: T28, TNNI3K (Homo sapiens, UniProt Q59H18); experiment: kinome scan; format: binding; settings: 10 µM
T28 construct: purchased DiscoverX (KINOMEscan)

ULK1 = target: T29, ULK1 (Homo sapiens, UniProt O75385); experiment: kinome scan; format: binding; settings: 10 µM
T29 construct: purchased DiscoverX (KINOMEscan)

VEGFR2 = target: T30, VEGFR2 (Homo sapiens, UniProt P35968); experiment: kinome scan; format: binding; settings: 10 µM
T30 construct: purchased DiscoverX (KINOMEscan)

VRK2 = target: T31, VRK2 (Homo sapiens, UniProt Q86Y07); experiment: kinome scan; format: binding; settings: 10 µM
T31 construct: purchased DiscoverX (KINOMEscan)

YSK1 = target: T32, YSK1 (Homo sapiens, UniProt O00506); experiment: kinome scan; format: binding; settings: 10 µM
T32 construct: purchased DiscoverX (KINOMEscan)

ERK = ERK phosphorylation by Western blotting; format: cell-based, mouse; settings: PSC, data not shown
Text: It is noteworthy that, in parallel, a regulation of the ERK pathway was not confirmed at the protein level, assessed by the study of ERK phosphorylation by Western blotting (data not shown). The effects of the drug on proliferation or differentiation was next investigated in quantitative assays. The rate of cell proliferation of the PSC, assessed during five days by quantification of intracellular ATP, was not affected by the drug (Figure 2A). The CGR8 PSC line was stably transduced with a dual promoter/reporter gene construct containing a ubiquitous promoter (EF1αS) controlling the expression of Renilla Luciferase (RLuc) and also an early neural-specific promoter (Tα1), controlling the expression of Firefly Luciferase (FLuc). Then, neural differentiation was quantified by the normalized ratio between FLuc and RLuc ([Suter et al., 2009]). […] After 72 h, the cells were lysed for RLuc and FLuc luminescence measurement in the presence of their substrates, each signal being normalized with the signal obtained with the vehicle alone (DMSO).

TYK2 = TYK2 (Homo sapiens, UniProt P29597); experiment: Kd select analysis (DiscoverX); format: binding
Experimental: Hits are identified by an ultra-sensitive quantitative PCR detecting the specific DNA tag linked to each kinase (Supplementary Figure S2). The drug is used at a concentration of 10 µM and results are expressed as the percentage of signal (kinase PCR detection) with respect to DMSO control conditions. […] Interactions between 0 and 20% of reduction were considered to be the most significant ones.

[4] = tested on: Tau Fibril Formation, Thioflavin T Binding; design: method as in CHEMBL1614421; settings: reported activity, data mining; ref CHEMBL1614421; cited from earlier work

**Q.** What does the source list for `Nc1ccc(N=Nc2ccccc2)c(N)n1` [phenazopyridine, 2,6-diamino-3-(phenylazo)pyridine]?
**A.** kinase inhibition [1]: 100; kinase inhibition (AKT3): 92; kinase inhibition (CAMK1D): 100; kinase inhibition (CAMK2A): 97; kinase inhibition (CAMK2G): 100; kinase inhibition (CDK7): 50; kinase inhibition (DAPK3): 100; kinase inhibition (EGFR(G719C)): 80; kinase inhibition (EGFR(L861Q)): 95; kinase inhibition (ERK1): 95; kinase inhibition (ERK3): 95; remaining binding (% of control) (FLT3(ITD)): 55; kinase inhibition (IKK-epsilon): 72; percent of control binding remaining (KIT; KIT, 10 µM): 41; remaining binding at 10 µM (KIT; c-KIT wt, read-out: Kinome scan (% of control at 10 µM)): 41%; kinase inhibition (LRRK2): 100; kinase inhibition (MAK): 100; kinase inhibition (MAP4K2): 65; kinase inhibition (MYLK): 100; kinase inhibition (NEK3): 100; kinase inhibition (NEK4): 100; kinase inhibition (PAK7): 100; kinase inhibition (PKN1): 100; kinase inhibition (PRKD3): 100; kinase inhibition (QSK): 94; kinase inhibition (RET(V804L)): 100; kinase inhibition [2]: 80; kinase inhibition [3]: 86; kinase inhibition (TGFBR2): 66; kinase inhibition (TNNI3K): 100; kinase inhibition (ULK1): 100; kinase inhibition (VEGFR2): 97; kinase inhibition (VRK2): 86; kinase inhibition (YSK1): 96; regulation of the ERK pathway (ERK phosphorylation) (ERK): not confirmed; Kd (TYK2): 26 µM; Concentration [4]: 3.9 µM
